The values below come from article PMC3628110, “Mechanism for priming DNA synthesis by yeast DNA Polymerase α” (eLife, 2013).

Series [1] addresses T1, Pol α (catalytic core, 349–1258) (Saccharomyces cerevisiae, UniProt P13382, R508A/N509A/D998N).
T1 construct: gene POL1; catalytic core, residues 349-1258 (910 aa); N-terminal dual His/Strep tag, TEV-cleaved; E. coli BL21(DE3)Rosetta2
T1 sequence (P13382 349-1258 R508A/N509A/D998N): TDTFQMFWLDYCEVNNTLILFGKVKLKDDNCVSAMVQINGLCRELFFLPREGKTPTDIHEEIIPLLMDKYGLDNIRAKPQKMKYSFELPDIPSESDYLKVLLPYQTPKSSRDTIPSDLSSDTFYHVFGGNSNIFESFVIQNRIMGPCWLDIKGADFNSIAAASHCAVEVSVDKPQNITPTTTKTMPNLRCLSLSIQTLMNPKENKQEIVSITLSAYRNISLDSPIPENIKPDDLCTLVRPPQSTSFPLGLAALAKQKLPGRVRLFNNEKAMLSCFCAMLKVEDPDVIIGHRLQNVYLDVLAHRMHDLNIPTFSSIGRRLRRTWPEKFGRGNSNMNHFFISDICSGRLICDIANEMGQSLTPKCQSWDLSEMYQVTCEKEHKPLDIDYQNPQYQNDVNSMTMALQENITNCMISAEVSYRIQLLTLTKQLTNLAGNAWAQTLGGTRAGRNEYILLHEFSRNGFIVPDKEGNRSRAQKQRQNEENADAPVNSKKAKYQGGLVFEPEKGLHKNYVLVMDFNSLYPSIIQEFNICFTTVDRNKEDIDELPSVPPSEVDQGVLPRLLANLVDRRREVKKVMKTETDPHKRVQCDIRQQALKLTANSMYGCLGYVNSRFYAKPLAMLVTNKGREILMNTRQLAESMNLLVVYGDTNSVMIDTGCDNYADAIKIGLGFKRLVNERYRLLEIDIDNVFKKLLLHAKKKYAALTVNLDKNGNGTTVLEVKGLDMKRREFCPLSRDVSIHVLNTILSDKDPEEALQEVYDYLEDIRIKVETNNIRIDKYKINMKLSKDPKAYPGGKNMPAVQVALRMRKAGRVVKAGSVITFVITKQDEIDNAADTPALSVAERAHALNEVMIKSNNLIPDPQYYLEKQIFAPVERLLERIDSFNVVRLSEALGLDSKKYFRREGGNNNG
As to the kind of experiment: primer extension assay, denaturing gel. The format is biochemical. Particulars: labelled compound ([α-32P]dATP); poly(dT) 70mer template; up to 10 μM protein; 90 s.

For series [2], the target named is T1, Pol α (catalytic core, 349–1258). As to the kind of experiment: X-ray crystal structure of ternary complex, […] Å. The format is binding. Particulars: RNA 10mer primer/DNA 25mer template; 5 mM dGTP; 200 mM Mg acetate; polymerase active site; primer extended by dGMP during crystallization (mass spectrometry).
Series [3] has as its target T2, DNA polymerase alpha catalytic core (Pol α), R508A N509A D998N (Saccharomyces cerevisiae, UniProt P13382 349-1258, R508A;N509A;D998N).
T2 sequence: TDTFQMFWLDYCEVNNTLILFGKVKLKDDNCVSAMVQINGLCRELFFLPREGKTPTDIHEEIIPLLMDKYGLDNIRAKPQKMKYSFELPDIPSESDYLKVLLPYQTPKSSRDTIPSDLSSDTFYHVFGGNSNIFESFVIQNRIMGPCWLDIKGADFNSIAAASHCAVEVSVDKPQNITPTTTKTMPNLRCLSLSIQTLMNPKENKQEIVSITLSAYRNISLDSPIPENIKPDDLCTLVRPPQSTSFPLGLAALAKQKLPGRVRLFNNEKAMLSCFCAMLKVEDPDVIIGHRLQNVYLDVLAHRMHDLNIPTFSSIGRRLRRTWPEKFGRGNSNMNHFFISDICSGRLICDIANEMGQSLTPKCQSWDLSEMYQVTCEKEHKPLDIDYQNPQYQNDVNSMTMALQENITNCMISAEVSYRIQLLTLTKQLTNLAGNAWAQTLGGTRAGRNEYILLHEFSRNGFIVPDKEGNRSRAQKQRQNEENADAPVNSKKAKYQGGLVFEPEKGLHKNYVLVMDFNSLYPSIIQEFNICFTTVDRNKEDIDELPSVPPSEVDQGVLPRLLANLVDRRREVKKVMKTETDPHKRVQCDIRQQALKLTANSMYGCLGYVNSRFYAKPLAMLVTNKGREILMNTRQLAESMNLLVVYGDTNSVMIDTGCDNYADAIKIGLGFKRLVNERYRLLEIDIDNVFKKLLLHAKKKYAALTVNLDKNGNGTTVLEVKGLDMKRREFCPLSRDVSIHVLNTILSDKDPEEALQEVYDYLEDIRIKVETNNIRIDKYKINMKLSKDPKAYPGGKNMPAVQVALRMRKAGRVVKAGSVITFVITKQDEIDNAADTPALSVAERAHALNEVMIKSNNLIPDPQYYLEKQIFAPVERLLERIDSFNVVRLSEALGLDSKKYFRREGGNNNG
Kind of series: X-ray crystallography (3.1 Å); dGTP (5 mM) bound in active site; 200 mM Mg acetate; Crystals only: binary 0.1 M Bicine pH 8.0, 12% PEG 3350, 10 mM MgCl2, 18 °C; ternary 200 mM Mg acetate, 10% PEG 8000, 5 mM dGTP, micro-batch (3% glycerol). Primer extension assays are turnover only and not listed. Particulars: protein: recombinant; tags: N-terminal dual His/streptavidin tag, TEV-cleaved; 5' overhang 13 nt on template after extension (15 nt before); 12 bp.

Series [4] addresses T3, DNA polymerase alpha catalytic core (Pol α), wild type (Saccharomyces cerevisiae, UniProt P13382 349-1258).
T3 sequence: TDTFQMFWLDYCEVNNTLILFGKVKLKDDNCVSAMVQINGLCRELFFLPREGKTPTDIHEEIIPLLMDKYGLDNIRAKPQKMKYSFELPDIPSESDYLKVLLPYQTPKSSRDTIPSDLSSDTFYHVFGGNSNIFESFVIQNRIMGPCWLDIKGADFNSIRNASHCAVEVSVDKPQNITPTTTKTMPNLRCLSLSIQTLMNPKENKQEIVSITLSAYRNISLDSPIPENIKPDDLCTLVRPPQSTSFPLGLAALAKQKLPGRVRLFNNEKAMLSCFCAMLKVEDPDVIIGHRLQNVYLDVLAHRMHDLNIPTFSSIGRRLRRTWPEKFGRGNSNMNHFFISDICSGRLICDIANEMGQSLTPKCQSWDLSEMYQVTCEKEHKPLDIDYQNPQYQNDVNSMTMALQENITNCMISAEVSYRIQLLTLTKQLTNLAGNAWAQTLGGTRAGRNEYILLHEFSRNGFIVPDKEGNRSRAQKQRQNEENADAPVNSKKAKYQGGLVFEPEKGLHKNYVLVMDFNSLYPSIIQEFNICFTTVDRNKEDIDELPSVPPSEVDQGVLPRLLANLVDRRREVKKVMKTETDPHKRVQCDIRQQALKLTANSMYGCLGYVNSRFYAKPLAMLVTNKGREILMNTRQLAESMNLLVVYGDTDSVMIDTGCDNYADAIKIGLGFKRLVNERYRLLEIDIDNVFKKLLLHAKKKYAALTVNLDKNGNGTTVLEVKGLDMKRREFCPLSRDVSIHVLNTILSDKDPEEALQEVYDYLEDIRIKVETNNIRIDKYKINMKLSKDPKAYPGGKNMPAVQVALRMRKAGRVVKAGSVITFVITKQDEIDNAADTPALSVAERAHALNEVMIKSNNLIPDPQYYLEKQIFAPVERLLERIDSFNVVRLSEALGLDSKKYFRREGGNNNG
Kind of series: X-ray crystallography (3.0 Å); 10 mM MgCl2, 1 mM ddCTP in drop (no ddCTP density); Crystals only: binary 0.1 M Bicine pH 8.0, 12% PEG 3350, 10 mM MgCl2, 18 °C; ternary 200 mM Mg acetate, 10% PEG 8000, 5 mM dGTP, micro-batch (3% glycerol). Primer extension assays are turnover only and not listed. As to conditions: protein: recombinant; tags: N-terminal dual His/streptavidin tag, TEV-cleaved; 5' overhang 6 nt on template; 10 bp.

`Nc1ncnc2c1ncn2[C@H]1C[C@H](O)[C@@H](COP(=O)(O)OP(=O)(O)OP(=O)(O)O)O1` [dATP]: the “primer extension assay, denaturing gel” value in series [1] was “Residual activity of the D998N R508A N509A Pol α mutant was demonstrated by the primer extension assay”.
`Nc1nc2c(ncn2[C@H]2C[C@H](O)[C@@H](COP(=O)(O)OP(=O)(O)OP(=O)(O)O)O2)c(=O)[nH]1` [dGTP]: in series [2], the “X-ray crystal structure of ternary complex, 3.1 Å” value was “the R508A, N509A, D998N Pol α mutant was used”.

B1: RNA 10mer primer extended in crystal by two dG / DNA 25mer template (ternary complex) (DNA:RNA)
?: CGGCGGGCAGGG
DNA: TGAGCGTGTGTACCCCTGCCCGCCG
modifications: strand 1 is RNA 10mer (S5) plus two 3' deoxyguanosines; strand 2 DNA
As for B1, the binding result in series [3] is listed as “binds”.

B2: RNA 10mer primer / DNA 16mer template (binary complex) (DNA:RNA)
?: AGGCGGGCAG
DNA: TTTTCGCTGCCCGCCT
modifications: strand 1 RNA, strand 2 DNA
As for B2, the binding result in series [4] is “binds”.
